Test results from patent US20240325544A1, “CATIONIC LIPID FOR COVALENT MODIFICATION OF PEPTIDES” (PharmalN Corporation, priority 2023, published 2024).
Bridge positions count the residues as written; N and C are the ends. Square brackets hold non-standard residues; d marks the D form. Peptide text beside a SMILES is read from it. * marks the point of attachment. Palmitoyl = CCCCCCCCCCCCCCCC(=O)*; Dab = NCC[C@H](N)C(=O)O; Dap = NC[C@H](N)C(=O)O; AEEA = NCCOCCOCC(=O)O

Columns and labels:
C57BL/6J mice = experiment: Survival in LPS induced sepsis model (FIG. 2A); format: in vivo; conditions: LPS 15 mg/kg IP; 0.3 mg/kg (0.1 μmol/kg) SC once, survival to 56 hours
Protocol: FIGS. 2A-2B: Single and repeat administration of cationic alkyl modified C-type Natriuretic Peptides increases probability of survival in LPS induced Sepsis and ALI animal models. FIG. 2A) Sepsis induction: Male C57BL/6J mice (n=10 per group; 3 groups) were injected IP with LPS (15 mg/kg) and treated with various test articles, including cationic alkyl modified CNPs (SEQ ID NO: 31 and 29; 0.3 mg/kg (0.1 μmol/kg) SC). The control group received LPS treatment without any test article. The test articles were administered immediately after LPS administration (marked with vertical dotted lines). Survival was monitored every 2 hours from 8-56 hours, after which the surviving mice were euthanized under isoflurane anesthesia. […] Survival was monitored every 8 hours for 72 hours, after which the surviving mice were euthanized under isoflurane anesthesia. […]
Animal care and treatment: Male C57BL/6J mice (6 weeks-old) were purchased from Kyudo (Saga, Japan) and maintained under a 12-hour light/12-hour dark cycle with free access to water and standard mouse diet (MF diet, Oriental Yeast Co., Ltd. Tokyo, Japan). […] Survival was monitored every 2 hours from 8-56 hours, after which the mice were euthanized under isoflurane anesthesia. […] Survival was monitored every 8 hours for 72 hours, after which the mice were euthanized under isoflurane anesthesia. […]

[1] = system: E0771 breast cancer cells; experiment: Orthotopic mouse model of breast cancer using E0771 cells (FIG. 6); format: in vivo, mice; conditions: 0.3 mg/kg (0.1 μmol/kg) SC once daily, 5 days on, 2 days off, 3 cycles
Protocol: Error bars represent standard error of the mean. FIG. 6A) Tumor growth kinetics of 6-week-old female C57BL/6J mice (n=10 per group) that were inoculated with E0771 breast cancer cells (250,000 cells/mouse) in the mammary gland. Starting from Day 4 post-inoculation, cationic alkyl modified CNP derivatives (SEQ ID NO: 29, 30, and 31) were administered subcutaneously at a bolus dose of 0.3 mg/kg (0.1 μmol/kg) once daily for 5 days (5 days on, 2 days off) for 3 cycles; dose days indicated by gridlines. The control group, which received only buffer, was dosed in the same manner to establish the baseline tumor growth kinetics. […] Therefore, it can be concluded that the attachment of CNP is important for the observed anti-tumor activity. Statistical analysis was based on Dunnett's test performed by using GraphPad (n=10, 10, 10, and 10; Control, SEQ ID NO: 29, SEQ ID NO: 30, and SEQ ID NO: 31) **** P<0.0001 vs Control group.
Therefore, it can be concluded that the attachment of CNP is essential for anti-tumor activity. […] Animal care and treatment: Female C57BL/6J mice (6 weeks-old) were purchased from Kyudo (Saga, Japan) and maintained under a 12-hour light/12-hour dark cycle with free access to water and standard mouse diet (MF diet, Oriental Yeast Co., Ltd. Tokyo, Japan or PicoLab Rodent Diet 20, LabDiet Corp., St. Louis, Missouri). Implantation and drug administration: Mice were implanted with E0771 breast cancer cells (250,000 cells/mouse; Cosmo Bio Tokyo, Japan) in their left mammary gland and were randomized into groups of n=10. Starting from Day 4 post-inoculation, cationic alkyl modified CNP derivatives (SEQ ID NOs: 29, 30, and 31) were administered subcutaneously at a bolus dose of 0.3 mg/kg (0.1 μmol/kg; with a dose volume of 10 mL/kg) in sterile water for injection (Otsuka Pharmaceutical, Tokushima, Japan) once daily for 5 days (5 days on, 2 days off) for 3 cycles. The control group, which received only buffer, was dosed in the same manner to establish the baseline tumor growth kinetics. Tumor sizes were measured using calipers. Statistical analysis was based on Dunnett's test performed by using GraphPad (n=10, 10, 10, and 10; Control, SEQ ID NO: 29, SEQ ID NO: 30, and SEQ ID NO: 31) **** P<0.0001 vs Control group.

Sprague Dawley rats = experiment: Dose-range finding of cationic alkyl modified CNP, subcutaneous bolus in rats (Table 2)

Compound | Survival (C57BL/6J mice) | Tumor volume compared to the Control group [1] | Ataxia** in n = 3 (Sprague Dawley rats; up to 10 mg/kg) [mg/kg] | Lethargy* in n = 3 (Sprague Dawley rats; up to 10 mg/kg) [mg/kg] | Ataxia** in n = 3 (Sprague Dawley rats; value in parentheses) | Lethargy* in n = 3 (Sprague Dawley rats; value in parentheses)
CCCCCCCCCCCCCCCC(=O)NCCOCCOCC(=O)NCCOCCOCC(=O)NCCOCCOCC(=O)N[C@@H](CN)C(=O)N[C@@H](CN)C(=O)NCC(=O)N[C@@H](CC(C)C)C(=O)N[C@@H](CO)C(=O)N[C@@H](CCCCN)C(=O)NCC(=O)N[C@H]1CSSC[C@@H](C(=O)O)NC(=O)CNC(=O)[C@H](CC(C)C)NC(=O)CNC(=O)[C@H](CO)NC(=O)[C@H](CCC(N)=O)NC(=O)[C@H](CO)NC(=O)CNC(=O)[C@H]([C@@H](C)CC)NC(=O)[C@H](CCCNC(=N)N)NC(=O)[C@H](CC(=O)O)NC(=O)[C@H](CC(C)C)NC(=O)[C@H](CCCCN)NC(=O)[C@H](CC(C)C)NC(=O)CNC(=O)[C@H](Cc2ccccc2)NC1=O [SEQ ID NO: 31] ({Palmitoyl-AEEA-AEEA-AEEA}-[Dap][Dap]GLSKGCFGLKLDRIGSQSGLGC-OH; disulfide 8-24; C-terminus assumed) | effective in improving survival | significant decrease in tumor volume | >10 | >10 | (3.3) μmol/kg | (3.3) μmol/kg
CCCCCCCCCCCCCCCC(=O)NCCOCCOCC(=O)NCCOCCOCC(=O)NCCOCCOCC(=O)N[C@@H](CCN)C(=O)N[C@@H](CCN)C(=O)NCC(=O)N[C@@H](CC(C)C)C(=O)N[C@@H](CO)C(=O)N[C@@H](CCCCN)C(=O)NCC(=O)N[C@H]1CSSC[C@@H](C(=O)O)NC(=O)CNC(=O)[C@H](CC(C)C)NC(=O)CNC(=O)[C@H](CO)NC(=O)[C@H](CCC(N)=O)NC(=O)[C@H](CO)NC(=O)CNC(=O)[C@H]([C@@H](C)CC)NC(=O)[C@H](CCCNC(=N)N)NC(=O)[C@H](CC(=O)O)NC(=O)[C@H](CC(C)C)NC(=O)[C@H](CCCCN)NC(=O)[C@H](CC(C)C)NC(=O)CNC(=O)[C@H](Cc2ccccc2)NC1=O [SEQ ID NO: 29] ({Palmitoyl-AEEA-AEEA-AEEA}-[Dab][Dab]GLSKGCFGLKLDRIGSQSGLGC-OH; disulfide 8-24; C-terminus assumed) | effective in improving survival | significant decrease in tumor volume | >10 | ≥9.5 | (3.3) μmol/kg | (3.1) μmol/kg
